In brackets after ≈: the same amount, converted by molar mass.
How the values were obtained:
Assay type in all cases: functional, cell-based
KB = assay: Cytotoxicity against human KB cells after 5 days by MTT assay; conditions: 120 h
HCT-8 = assay: Cytotoxicity against human HCT8 cells after 5 days by MTT assay; conditions: HCT-8, 120 h
A2780 = assay: Cytotoxicity against human A2780 cells after 5 days by MTT assay; conditions: A2780, 120 h

SMILES	IC50 (KB) [µg/mL]	IC50 (HCT-8) [µg/mL]	IC50 (A2780) [µg/mL]
CCCCCCCCCCCC[C@H](O)[C@H]1CC[C@H]([C@H](O)C[C@@H](O)CCCCCCCCCCCCC2=C[C@H](C)OC2=O)O1 [CALAMISTRIN A]	2 (≈ 3.28 µM)	0.37 (≈ 0.608 µM)	1.4 (≈ 2.3 µM)
CCCCCCCCCCCC[C@H](O)[C@H]1CC[C@H]([C@@H](C[C@H](O)CCCCCCCCCCCCC2=C[C@H](C)OC2=O)OC(C)=O)O1 [CALAMISTRIN B]	6.1 (≈ 9.37 µM)	0.022 (≈ 0.0338 µM)	3.1 (≈ 4.76 µM)
